This is an account of results in US20170121315A1, “HETEROBICYCLICALLY SUBSTITUTED 4-OXOBUTANE ACID DERIVATIVES AND USE THEREOF” (priority 2014, published 2017).

Where only a bound is given, the exact number is not on record here.

What all share (type): biochemical
For assay [1], the target named is T1, MMP-1 (Homo sapiens, UniProt P03956).
T1 construct: purchased R&D Systems 901-MP
T1 sequence (P03956 100-469): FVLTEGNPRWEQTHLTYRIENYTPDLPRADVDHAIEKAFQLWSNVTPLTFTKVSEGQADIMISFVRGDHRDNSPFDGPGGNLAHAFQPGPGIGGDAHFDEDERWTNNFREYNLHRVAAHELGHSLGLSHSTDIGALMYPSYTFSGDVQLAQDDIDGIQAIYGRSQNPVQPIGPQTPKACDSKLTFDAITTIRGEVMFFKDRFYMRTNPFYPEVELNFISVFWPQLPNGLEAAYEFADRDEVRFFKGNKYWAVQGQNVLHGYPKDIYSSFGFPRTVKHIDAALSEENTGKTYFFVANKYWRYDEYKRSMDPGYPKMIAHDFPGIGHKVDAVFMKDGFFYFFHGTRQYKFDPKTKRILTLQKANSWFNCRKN
In words: In vitro MMP-1 inhibition test. To be noted: human MMP-1. The source says:
(§1) The MMP-mediated amidolytic cleavage of a suitable peptide substrate leads to an increase in fluorescent light here too. The signal intensity of the fluorescent light is directly proportional to the enzyme activity. The active concentration of a test compound at which half the enzyme is inhibited (50% signal intensity of the fluorescent light) is reported as the IC50 value.
(§2) Recombinant MMP-1 (R&D Systems, 901-MP) is chemically activated in accordance with the manufacturer's instructions using APMA. 1 μl of the test compound to be analysed (as a solution in DMSO, suitable concentrations e.g. 1 nM to 30 μM) is pipetted into 24 μl of activated enzyme (final concentration e.g. 2 nM) in reaction buffer (50 mM Tris/HCl pH 7.5, 10 mM CaCl2, 150 mM NaCl, 0.05% Brij®-35) in a white 384-hole microtiter plate (MTP). The enzymatic reaction is started by adding the intramolecularly quenched Mca-Pro-Leu-Gly-Leu-Dpa(Dnp)-Ala-Arg-NH2 substrate (final concentration e.g. 10 μM; R&D Systems, ES-001), so as to result in a total test volume of 50 μl. The course of the MMP-1 reaction is measured by measuring the fluorescence intensity (excitation 320 nm, emission 410 nm) over a suitable period of time (e.g. over 120 min at a temperature of 32° C.).

Assay [2] concerns the target T2, MMP-16 (Homo sapiens, UniProt P51512).
T2 construct: purchased R&D Systems 1785-MP
As to the kind of experiment: In vitro MMP-16 inhibition test. The note with it: human MMP-16.
From the text: as §1
Recombinant MMP-16 (R&D Systems, 1785-MP) is enzymatically activated in accordance with the manufacturer's instructions using recombinant furin (R&D Systems, 1503-SE). 1 μl of the test compound to be analysed (as a solution in DMSO, suitable concentrations e.g. 1 nM to 30 μM) is pipetted into 24 μl of activated enzyme (final concentration e.g. 1 nM) in reaction buffer (50 mM Tris/HCl pH 7.5, 10 mM CaCl2, 150 mM NaCl, 0.05% Brij®-35) in a white 384-hole microtiter plate (MTP). The enzymatic reaction is started by adding the intramolecularly quenched Mca-Lys-Pro-Leu-Gly-Leu-Dpa(Dnp)-Ala-Arg-NH2 substrate (final concentration e.g. 5 μM; R&D Systems, ES-010), so as to result in a total test volume of 50 μl. The course of the MMP-16 reaction is measured by measuring the fluorescence intensity (excitation 320 nm, emission 410 nm) over a suitable period of time (e.g. over 120 min at a temperature of 32° C.).

Assay [3] concerns the target T3, human macrophage elastase (HME/hMMP-12) (Homo sapiens, UniProt P39900).
T3 construct: purchased R&D Systems 917-MP
In words: In vitro HME inhibition test (standard or high-sensitivity). The note with it: in some cases mean values, rounded to two significant figures. The procedure, abridged: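 Autoactivated HME (0.5 nM; high-sensitivity format 0.05 nM, ~16 h) with 5 μM quenched Mca-PLGLEEA-Dap(Dnp)-NH2 substrate in HEPES pH 7.4, NaCl, CaCl2, ZnCl2, EDTA, Brij buffer, 2 h at 37° C. Fluorescence at ex 323/em 393 nm; IC50 from signal versus concentration.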

Assay [4] deals with T4, MMP-10 (Homo sapiens, UniProt P09238).
T4 construct: purchased R&D Systems 910-MP
T4 sequence (P09238 99-476): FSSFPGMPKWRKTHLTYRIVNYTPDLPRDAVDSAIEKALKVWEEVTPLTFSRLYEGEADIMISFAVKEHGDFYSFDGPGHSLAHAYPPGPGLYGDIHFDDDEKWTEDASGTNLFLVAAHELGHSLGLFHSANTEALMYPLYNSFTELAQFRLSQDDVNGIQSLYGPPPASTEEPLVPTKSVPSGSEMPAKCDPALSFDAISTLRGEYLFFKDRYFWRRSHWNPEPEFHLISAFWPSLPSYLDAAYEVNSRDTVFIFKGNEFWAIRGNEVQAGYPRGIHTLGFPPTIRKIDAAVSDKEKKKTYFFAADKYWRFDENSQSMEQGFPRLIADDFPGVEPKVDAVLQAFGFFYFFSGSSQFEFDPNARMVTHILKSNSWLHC
As to the kind of experiment: In vitro MMP-10 inhibition test. To be noted: human MMP-10.
From the text: as §1
as §2, with “MMP-10” for “MMP-1”, “910-MP)” for “901-MP)”, “Mca-Arg-Pro-Lys-Pro-Val-Glu-Nval-Trp-Arg-Lys(Dnp)-NH2” for “Mca-Pro-Leu-Gly-Leu-Dpa(Dnp)-Ala-Arg-NH2”, “ES-002),” for “ES-001),”

T3 sequence (P39900 106-470): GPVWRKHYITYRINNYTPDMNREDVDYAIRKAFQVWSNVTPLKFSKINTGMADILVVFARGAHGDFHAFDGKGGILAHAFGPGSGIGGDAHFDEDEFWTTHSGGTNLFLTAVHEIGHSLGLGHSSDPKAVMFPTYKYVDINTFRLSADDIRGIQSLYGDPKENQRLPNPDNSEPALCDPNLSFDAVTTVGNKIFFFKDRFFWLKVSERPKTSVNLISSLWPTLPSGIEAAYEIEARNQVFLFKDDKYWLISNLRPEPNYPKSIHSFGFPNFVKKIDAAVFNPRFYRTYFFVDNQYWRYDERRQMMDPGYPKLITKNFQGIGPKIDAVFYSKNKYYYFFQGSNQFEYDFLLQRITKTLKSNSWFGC
T2 sequence (P51512 120-564 limits assumed): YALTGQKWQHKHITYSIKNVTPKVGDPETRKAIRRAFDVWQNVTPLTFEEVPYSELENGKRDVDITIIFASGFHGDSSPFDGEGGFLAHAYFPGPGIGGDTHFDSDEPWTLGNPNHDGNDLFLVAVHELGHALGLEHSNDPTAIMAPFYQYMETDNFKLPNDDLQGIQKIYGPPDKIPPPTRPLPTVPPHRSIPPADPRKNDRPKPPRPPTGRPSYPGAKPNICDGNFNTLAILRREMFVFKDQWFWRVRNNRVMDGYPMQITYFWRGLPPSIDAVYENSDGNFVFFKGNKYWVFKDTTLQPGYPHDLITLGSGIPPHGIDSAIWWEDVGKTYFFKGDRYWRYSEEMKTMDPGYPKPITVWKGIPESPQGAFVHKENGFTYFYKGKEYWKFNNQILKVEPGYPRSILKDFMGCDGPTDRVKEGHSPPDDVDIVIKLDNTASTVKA

Regarding `O=C(CC(CCn1nnc2ccccc2c1=O)C(=O)O)c1noc2cc(OCc3ccccc3)ccc12` (racemic) [Example 145, (+/−)-4-[6-(Benzyloxy)-1,2-benzoxazol-3-yl]-4-oxo-2-[2-(4-oxo-1,2,3-benzotriazin-3(4H)-yl)ethyl]butanoic acid], the IC50 is over 40 µM in assay [1], 25 µM in assay [2], 0.71 nM in assay [3] and 10 µM in assay [4].
Consider `O=C(CC(CCn1nnc2ccccc2c1=O)C(=O)O)c1noc2cc(OCc3ccc(F)cc3)ccc12` (racemic) [Example 136, (+/−)-4-{6-[(4-Fluorobenzyl)oxy]-1,2-benzoxazol-3-yl}-4-oxo-2-[2-(4-oxo-1,2,3-benzotriazin-3(4H)-yl)ethyl]butanoic acid], for which the IC50 in assay [1] is over 40 µM; in assay [2], 30 µM; in assay [3] it was 0.63 nM; in assay [4], 12 µM.
With `CCCCCOc1ccc2c(C(=O)CC(CCn3nnc4ccccc4c3=O)C(=O)O)noc2c1` (racemic) [Example 140, (+/−)-4-Oxo-2-[2-(4-oxo-1,2,3-benzotriazin-3(4H)-yl)ethyl]-4-[6-(pentyloxy)-1,2-benzoxazol-3-yl]butanoic acid], the IC50 is over 40 µM in assay [1], 24 µM in assay [2], 0.28 nM in assay [3] and 6.3 µM in assay [4].
For `O=C(CC(CCn1nnc2ccccc2c1=O)C(=O)O)c1cc2cc(OCCC3CCCC3)ccc2o1` (racemic) [Example 7, (+/−)-4-[5-(2-Cyclopentylethoxy)-1-benzofur-2-yl]-4-oxo-2-[2-(4-oxo-1,2,3-benzotriazin-3(4H)-yl)ethyl]butanoic acid] the same measures were over 40 µM, over 40 µM, 2.8 nM and 9.3 µM.
For `O=C(CC(CCn1nnc2ccccc2c1=O)C(=O)O)c1noc2cc(OCc3cccnc3)ccc12` (racemic) [Example 148, (+/−)-4-Oxo-2-[2-(4-oxo-1,2,3-benzotriazin-3(4H)-yl)ethyl]-4-[6-(pyridin-3-ylmethoxy)-1,2-benzoxazol-3-yl]butanoic acid] the same measures were over 40 µM, over 40 µM, 1.8 nM and 0.2 µM.
For `O=C(CC(CCn1nnc2ccccc2c1=O)C(=O)O)c1cc2cc(OCC3CCOCC3)ccc2o1` (racemic) [Example 5, (+/−)-4-Oxo-2-[2-(4-oxo-1,2,3-benzotriazin-3(4H)-yl)ethyl]-4-[5-(tetrahydro-2H-pyran-4-ylmethoxy)-1-benzofur-2-yl]butanoic acid] the same measures were over 40 µM, over 40 µM, 2.1 nM and 34 µM.
As to `O=C(CC(CCn1nnc2ccccc2c1=O)C(=O)O)c1coc2cc(OCC3CCCCC3)ccc12` (single isomer, unassigned; (+)) [Example 82, (+)-4-[6-(Cyclohexylmethoxy)-1-benzofur-3-yl]-4-oxo-2-[2-(4-oxo-1,2,3-benzotriazin-3(4H)-yl)ethyl]butanoic acid], the IC50 in assay [1] is over 40 µM; in assay [2], over 40 µM; in assay [3], 0.089 nM; in assay [4] it was 6.8 µM.
`O=C(CC(CCn1nnc2ccccc2c1=O)C(=O)O)c1cc2ccc(OCCc3ccccc3)cc2o1` (racemic) [Example 73, (+/−)-4-Oxo-2-[2-(4-oxo-1,2,3-benzotriazin-3(4H)-yl)ethyl]-4-[6-(2-phenylethoxy)-1-benzofur-2-yl]butanoic acid]: the IC50 in assay [1] is over 40 µM; in assay [2], over 40 µM; in assay [3], 2.8 nM; in assay [4], over 40 µM.
Regarding `O=C(CC(CCn1nnc2ccccc2c1=O)C(=O)O)c1cc2cc(OCCCC(F)(F)F)ccc2o1` (single isomer, unassigned; enantiomer 2) [Example 13, (+)-4-Oxo-2-[2-(4-oxo-1,2,3-benzotriazin-3(4H)-yl)ethyl]-4-[5-(4,4,4-trifluorobutoxy)-1-benzofur-2-yl]butanoic acid (enantiomer 2)], the IC50 in assay [1] was over 40 µM; in assay [2], over 40 µM; in assay [3], 6.1 nM; in assay [4], 15 µM.
Take `O=C(CC(CCn1nnc2ccccc2c1=O)C(=O)O)c1noc2cc(OCC3CC3)ccc12` (racemic) [Example 150, (+/−)-4-[6-(Cyclopropylmethoxy)-1,2-benzoxazol-3-yl]-4-oxo-2-[2-(4-oxo-1,2,3-benzotriazin-3(4H)-yl)ethyl]butanoic acid]: the IC50 in assay [1] was over 40 µM; in assay [2] it was 11 µM; in assay [3], 3.8 nM; in assay [4], over 40 µM.
`O=C(CC(CCn1nnc2ccccc2c1=O)C(=O)O)c1onc2cc(OCc3ccccc3)ccc12` (racemic) [Example 156, (+/−)-4-[6-(Benzyloxy)-2,1-benzoxazol-3-yl]-4-oxo-2-[2-(4-oxo-1,2,3-benzotriazin-3(4H)-yl)ethyl]butanoic acid]: the IC50 in assay [1] was over 40 µM; in assay [2], 38 µM; in assay [3], 2.4 nM; in assay [4], 28 µM.
Turning to `O=C(CC(CCn1nnc2ccccc2c1=O)C(=O)O)c1coc2cc(OCCC3CCCC3)ccc12` (racemic) [Example 75, (+/−)-4-[6-(2-Cyclopentylethoxy)-1-benzofur-3-yl]-4-oxo-2-[2-(4-oxo-1,2,3-benzotriazin-3(4H)-yl)ethyl]butanoic acid], the IC50 in assay [1] is over 40 µM; in assay [2] it was over 40 µM; in assay [3], 0.22 nM; in assay [4], 7.7 µM.
As for `O=C(CC(CCn1nnc2ccccc2c1=O)C(=O)O)c1cc2cc(OCCC3CCOCC3)ccc2o1` (racemic) [Example 6, (+/−)-4-Oxo-2-[2-(4-oxo-1,2,3-benzotriazin-3(4H)-yl)ethyl]-4-{5-[2-(tetrahydro-2H-pyran-4-yl)ethoxy]-1-benzofur-2-yl}butanoic acid], the IC50 was over 40 µM in assay [1], over 40 µM in assay [2], 4 nM in assay [3] and 7 µM in assay [4].
Consider `O=C(CC(CCn1nnc2ccccc2c1=O)C(=O)O)c1cc2cc(OCCc3ccccc3Cl)ccc2o1` (racemic) [Example 1, (+/−)-4-{5-[2-(2-Chlorophenyl)ethoxy]-1-benzofur-2-yl}-4-oxo-2-[2-(4-oxo-1,2,3-benzotriazin-3(4H)-yl)ethyl]butanoic acid], for which the IC50 in assay [1] was over 40 µM; in assay [2], over 40 µM; in assay [3], 2.6 nM; in assay [4], 28 µM.

The IC50 is the concentration at which inhibition is half-maximal. Lower therefore signals greater potency.
